Data reported in US12178825B2, “Method and compositions for forming a copper-containing complex and uses thereof” (COLD SPRING HARBOR LABORATORY, priority 2017, dated 2024).
pKd: −log10 of the molar value.

Legend:
PAK1 [1] = target: T1, PAK1 (Homo sapiens, UniProt Q13153); assay: Cu-binding assay with kinase; details: read-out: Kd, copper binding to PAK1
Experimental: Direct binding assays were performed using radiolabelled copper (64 Cu^2+). Varying concentration of radiolabeled copper (0-10 uM) was incubated with recombinant PAK1 (100 nM). Excess copper was removed by running the samples through a desalting column. The amount of metal bound to the protein was quantitated directly by scintillation counting.

MEK1 = MEK1 (Homo sapiens, UniProt Q02750); assay: Cu-binding assay with kinase; details: read-out: Kd, copper binding to MEK1
MEK1, sequence (Q02750 whole entry): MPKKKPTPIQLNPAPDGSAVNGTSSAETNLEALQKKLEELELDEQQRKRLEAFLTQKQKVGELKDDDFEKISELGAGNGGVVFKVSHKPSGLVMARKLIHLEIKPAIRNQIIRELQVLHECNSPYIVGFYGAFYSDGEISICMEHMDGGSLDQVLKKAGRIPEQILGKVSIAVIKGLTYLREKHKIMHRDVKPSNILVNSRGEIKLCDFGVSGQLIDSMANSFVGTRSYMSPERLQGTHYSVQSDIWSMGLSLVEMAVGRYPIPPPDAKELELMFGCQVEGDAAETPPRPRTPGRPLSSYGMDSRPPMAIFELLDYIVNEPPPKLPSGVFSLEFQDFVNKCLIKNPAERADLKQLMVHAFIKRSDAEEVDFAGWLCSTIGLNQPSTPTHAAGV

PAK1 [2] = target: T1, PAK1; assay: Kinase activity assay (ADP-Glow, MBP substrate); assay type: biochemical; details: in the presence of Cu(II)
Experimental: In brief, recombinant PAK1 (20 nM) or recombinant MEK1 (20 nM) were incubated for 30 min in 180 μl of kinase buffer in the presence or absence of CuSO4 (5 μM). The activity of the kinase was monitored using MBP as substrate by ADP-Glow assay (Promega) as per user's manual.

[3] = test system: ATP7B-knockdown HepG2 cells; assay: Copper-induced toxicity, MTT cell survival; assay type: cell-based; details: copper concentrations greater than 0.5 mM
Experimental: HepG2 cells purchased from ATCC were cultured in RPMI media containing 10% FBS, 5% CO2 at 37 C. Control (AG09319) and Wilson's disease patient-derived fibroblasts (GM00032, GM00033, GM05257, GM12158, GM05798 and GM11778) were obtained from Coriell Biorepository and cultured in DMEM, 10% FBS, 5% CO2 at 37° C.
For cell survival assays, 10,000 cells were seeded in a 96 well plate and cultured until fully confluent (90%). To these cells, ATP7B siRNAs or scrambled siRNA (negative control) purchased from Qiagen and Santa Cruz Biotechnology were transfected. Lipofectamine RNAiMAX reagent (Thermofischer) and siRNAs were diluted into a final volume of 100 μl in Opti-MEM (Gibco). The mixture was incubated at room temperature for 30 min, following which 800 μl of Opti-MEM was added to the mixture. The above transfection solution was overlaid onto cells at a final concentration of 5 nM siRNA. Transfection of HepG2 cells with scrambled siRNA served as negative control. Twelve hours after the transfection, complete media was added to each well. Following which, knockdown efficiency was checked (24 hours later) and cells were exposed to varying concentration of copper (0-1 mM) for 12 h and cell viability was determined using the MTT assay as previously described (37). […]

T1 sequence (Q13153 whole entry): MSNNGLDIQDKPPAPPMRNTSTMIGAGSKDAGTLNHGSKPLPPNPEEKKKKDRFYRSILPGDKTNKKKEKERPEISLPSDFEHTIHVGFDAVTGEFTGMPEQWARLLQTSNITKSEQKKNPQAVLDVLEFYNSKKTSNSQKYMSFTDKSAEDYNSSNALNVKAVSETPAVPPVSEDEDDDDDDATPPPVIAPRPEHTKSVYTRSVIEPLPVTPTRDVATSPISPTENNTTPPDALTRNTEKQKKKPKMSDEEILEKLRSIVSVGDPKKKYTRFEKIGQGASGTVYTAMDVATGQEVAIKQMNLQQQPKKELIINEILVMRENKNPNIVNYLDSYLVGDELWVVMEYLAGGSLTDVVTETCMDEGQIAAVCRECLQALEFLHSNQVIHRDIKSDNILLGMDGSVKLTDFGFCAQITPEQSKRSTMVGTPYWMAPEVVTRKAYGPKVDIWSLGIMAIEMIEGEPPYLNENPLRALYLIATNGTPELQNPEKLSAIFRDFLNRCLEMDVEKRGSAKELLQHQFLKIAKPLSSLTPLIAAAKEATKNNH

Compound: [Cu+2] [copper]
- pKd (PAK1 [1]): 7.82
- pKd (MEK1): 8.30
- Vmax of PAK1 kinase activity (PAK1 [2]): 834.4
- survival of ATP7B-KD1 [3]: less than 20%
